PubChem BioAssay (NCI)
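Tested at 5 concentrations; 48 h exposure; 96-well plates; endpoints linearly interpolated, else capped at highest concentration. The concentration for 50% growth inhibition is given as GI50. Definition used: TGI = concentration required for complete inhibition of growth.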

Experiments:
Assay in all cases: NCI tumour cell line growth inhibition, 48 h
ACHN renal = tested on: ACHN renal
KM12 colon = tested on: KM12 colon
OVCAR-4 ovarian = tested on: OVCAR-4 ovarian
OVCAR-8 ovarian = tested on: OVCAR-8 ovarian
SK-OV-3 ovarian = tested on: SK-OV-3 ovarian
MDA-MB-231 breast = tested on: MDA-MB-231 breast
MDA-MB-435 = tested on: MDA-MB-435
RXF 393 renal = tested on: RXF 393 renal
NCI/ADR-RES ovarian = tested on: NCI/ADR-RES ovarian
SR leukemia = tested on: SR leukemia

SMILES	GI50 (ACHN renal) [µM]	TGI (ACHN renal) [µM]	TGI (KM12 colon) [µM]	GI50 (OVCAR-4 ovarian) [µM]	TGI (OVCAR-4 ovarian) [µM]	GI50 (OVCAR-8 ovarian) [µM]	TGI (OVCAR-8 ovarian) [µM]	GI50 (SK-OV-3 ovarian) [µM]	TGI (SK-OV-3 ovarian) [µM]	GI50 (MDA-MB-231 breast) [µM]	TGI (MDA-MB-231 breast) [µM]	GI50 (MDA-MB-435) [µM]	TGI (MDA-MB-435) [µM]	GI50 (RXF 393 renal) [µM]	TGI (RXF 393 renal) [µM]	GI50 (NCI/ADR-RES ovarian) [µM]	TGI (NCI/ADR-RES ovarian) [µM]	GI50 (SR leukemia) [µM]	TGI (SR leukemia) [µM]	GI50 (KM12 colon) [µM]
NC1=NCCN1CC(=O)O	> 10000	> 10000	> 10000	> 10000	> 10000	> 10000	> 10000	> 10000	> 10000	> 10000	> 10000	> 10000	> 10000	> 10000	> 10000	> 10000	> 10000	> 10000	> 10000	
C/C(=C(\c1ccc(OCCN2CCCCCC2)cc1)c1ccc(OC(=O)Cc2ccccc2)cc1)c1ccc(Cl)cc1	2.63	4.93	5.77	2.82	7.05	3.24	6.35	4.87	15.6	3.04	5.69	2.46	4.66	2.03	4.45	2.99	6.86	0.556	6.87	2.72
COC(=O)/C=C/c1cn(C(C)=O)c2ccc(Br)cc12	29.4	> 100	79.5	31.4	> 100	38.5	> 100	32.4	> 100	11.8	29.5	29	> 100	26.9	> 100	29.4	> 100	32.5	> 100	25.3
CC(=O)[C@@]1(O)[C@H](C)C[C@H]2[C@@H]3C=C(C)C4=Cc5c(cnn5-c5ccccc5)C[C@]4(C)[C@H]3[C@@H](O)C[C@@]21C	2.75	11.3	4.5	3.85	31.1	2.8	13.8	0.76	10.5	2.04	5.4	2.44	8.7	1.31	6.42	1.91	9.75	1.77		1.69
Cc1cc(Oc2ccc3nc(COc4ccc(CC5SC(=O)NC5=O)cc4)n(C)c3c2)cc(C)c1N (stereo not drawn)	48.9	> 100	> 76.2	34.2	> 100	31.2	> 86.5	> 66.1	> 100	45.4	> 100	27.4	> 100	50.8	> 100	32.5	> 100	31.7	> 100	26.5
N#CS.N=C=S.N=C=S.[Cu+2].[NH2-].[NH2-].[NH2-].[NH2-].c1ccc2ncccc2c1	> 100	> 100	> 100	20.6	43.4	> 100	> 100	24.4	62.7	38.7	84.2	19.4	41.3	25.5	44	> 100	> 100	> 100	> 100	31.5
